Laboratory results: patent publication US12043599B2, “Herbicidal compounds” (SYNGENTA PARTICIPATIONS AG, priority 2018, dated 2024)

What was measured:
Type in all cases: in vivo
Conditions in all cases: 250 g/h, evaluated after 13 days
[1] = tested on: Setaria faberi (SETFA); test: Post-emergence herbicidal glasshouse test, percentage damage
Method in brief: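 Wheat, barley and Setaria faberi were sprayed post-emergence after 8 days' growth (24/16 °C, 14 h light, 65% humidity) with compound in acetone/water (50:50) containing 0.5% Tween 20, at the indicated rates. On wheat, compounds were also applied with cloquintocet-mexyl at 50 g/ha. Damage was scored after 13 days on a five-point scale (5=80-100% to 1=0-19%).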

[2] = tested on: Lolium perenne (LOLPE); test: as above
Method in brief: (§1)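 Compounds applied at 250 g/h, formulated in 50:50 acetone/water plus 0.5% Tween 20, onto potted plants one day (pre-emergence) or 8 days (post-emergence) after sowing. Scoring of damage at day 13 used a five-point scale.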

[3] = tested on: Alopecurus myosuroides (ALOMY); test: as above
Method in brief: as §1

[4] = tested on: Echinochloa crus-galli (ECHCG); test: as above
Method in brief: as §1

[5] = tested on: Avena fatua (AVEFA); test: as above
Method in brief: as §1

[6] = tested on: Lolium perenne (LOLPE); test: Pre-emergence herbicidal glasshouse test, percentage damage
Method in brief: as §1

[7] = tested on: Alopecurus myosuroides (ALOMY); test: as above
Method in brief: as §1

[8] = tested on: Setaria faberi (SETFA); test: as above
Method in brief: as §1

[9] = tested on: Echinochloa crus-galli (ECHCG); test: as above
Method in brief: as §1

[10] = tested on: Avena fatua (AVEFA); test: as above
Method in brief: as §1

| Structure (SMILES) | SETFA POST percentage damage (five point scale) [1] | LOLPE POST percentage damage (five point scale) [2] | ALOMY POST percentage damage (five point scale) [3] | ECHCG POST percentage damage (five point scale) [4] | AVEFA POST percentage damage (five point scale) [5] | LOLPE PRE percentage damage (five point scale) [6] | ALOMY PRE percentage damage (five point scale) [7] | SETFA PRE percentage damage (five point scale) [8] | ECHCG PRE percentage damage (five point scale) [9] | AVEFA PRE percentage damage (five point scale) [10] |
| --- | --- | --- | --- | --- | --- | --- | --- | --- | --- | --- |
| CC#Cc1cc(C)c(C2C(=O)CC3(CCN(C(=O)NC(C)(C)CC)CC3)CC2=O)c(C)c1 [Compound A169] | 5 (5=80-100%) | 5 (5=80-100%) | 5 (5=80-100%) | 5 (5=80-100%) | 5 (5=80-100%) | 5 (5=80-100%) | 5 (5=80-100%) | 5 (5=80-100%) | 5 (5=80-100%) | 5 (5=80-100%) |
| CC#Cc1cc(C)c(C2C(=O)CC3(CCN(C(=O)c4cnccc4C#N)CC3)CC2=O)c(C)c1 [Compound A192] | 5 (5=80-100%) | 5 (5=80-100%) | 5 (5=80-100%) | 5 (5=80-100%) | 5 (5=80-100%) | 5 (5=80-100%) | 3 (3=40-59%) | 5 (5=80-100%) | 5 (5=80-100%) | 3 (3=40-59%) |
| CC#Cc1cc(C)c(C2C(=O)CC3(CCN(C(=O)CC#N)CC3)CC2=O)c(OC)c1 [Compound A80] | 5 (5=80-100%) | 5 (5=80-100%) | 5 (5=80-100%) | 5 (5=80-100%) | 5 (5=80-100%) | 5 (5=80-100%) | 5 (5=80-100%) | 5 (5=80-100%) | 5 (5=80-100%) | 5 (5=80-100%) |
| CC#Cc1cc(C)c(C2C(=O)CC3(CCN(C(=O)c4ncccn4)CC3)CC2=O)c(C)c1 [Compound A19] | 5 (5=80-100%) | 5 (5=80-100%) | 5 (5=80-100%) | 5 (5=80-100%) | 5 (5=80-100%) | 5 (5=80-100%) | 5 (5=80-100%) | 5 (5=80-100%) | 5 (5=80-100%) | 5 (5=80-100%) |
| CC#Cc1cc(C)c(C2=C(OC(=O)OC)CC3(CCN(S(C)(=O)=O)CC3)CC2=O)c(C)c1 [Compound P28] | 5 (5=80-100%) | 5 (5=80-100%) | 5 (5=80-100%) | 5 (5=80-100%) | 5 (5=80-100%) | 5 (5=80-100%) | 5 (5=80-100%) | 5 (5=80-100%) | 5 (5=80-100%) | 5 (5=80-100%) |
| CC#Cc1cc(C)c(C2C(=O)CC3(CCN(S(=O)(=O)C4COC4)CC3)CC2=O)c(C)c1 [Compound A83] | 5 (5=80-100%) | 5 (5=80-100%) | 5 (5=80-100%) | 5 (5=80-100%) | 5 (5=80-100%) | 5 (5=80-100%) | 5 (5=80-100%) | 5 (5=80-100%) | 5 (5=80-100%) | 4 (4=60-79%) |
| CC#Cc1cc(C)c(C2C(=O)CC3(CCN(C(=O)NC(=O)c4cccc(F)n4)CC3)CC2=O)c(C)c1 [Compound A159] | 5 (5=80-100%) | 5 (5=80-100%) | 5 (5=80-100%) | 5 (5=80-100%) | 5 (5=80-100%) | 5 (5=80-100%) | 5 (5=80-100%) | 5 (5=80-100%) | 5 (5=80-100%) | 5 (5=80-100%) |
